Results: ChEMBL document CHEMBL4811257, “Dipeptide inhibitors of the prostate specific membrane antigen (PSMA): A comparison of urea and thiourea derivatives” (Bioorg Med Chem Lett, 2021)

What was measured:
[1] = Stability of the compound in presence of GCPII/PSMA expressing human DU-145 cells by 1H-NMR analysis; type: ADME, cell-based
[2] = Stability of the compound in PBS at pH 7 measured for 48 hrs by 1H-NMR analysis; type: physicochemical; conditions: buffer, pH 7, 48 h
[3] = target: Glutamate carboxypeptidase 2 (Homo sapiens, UniProt Q04609); experiment: Inhibition of GCPII (unknown origin) expressed in DU-145 cells after 1 hr by [67Ga]Ga-DOTA-PSMA competitive binding assay with gamma counting
Chain of Glutamate carboxypeptidase 2 (Q04609 whole entry): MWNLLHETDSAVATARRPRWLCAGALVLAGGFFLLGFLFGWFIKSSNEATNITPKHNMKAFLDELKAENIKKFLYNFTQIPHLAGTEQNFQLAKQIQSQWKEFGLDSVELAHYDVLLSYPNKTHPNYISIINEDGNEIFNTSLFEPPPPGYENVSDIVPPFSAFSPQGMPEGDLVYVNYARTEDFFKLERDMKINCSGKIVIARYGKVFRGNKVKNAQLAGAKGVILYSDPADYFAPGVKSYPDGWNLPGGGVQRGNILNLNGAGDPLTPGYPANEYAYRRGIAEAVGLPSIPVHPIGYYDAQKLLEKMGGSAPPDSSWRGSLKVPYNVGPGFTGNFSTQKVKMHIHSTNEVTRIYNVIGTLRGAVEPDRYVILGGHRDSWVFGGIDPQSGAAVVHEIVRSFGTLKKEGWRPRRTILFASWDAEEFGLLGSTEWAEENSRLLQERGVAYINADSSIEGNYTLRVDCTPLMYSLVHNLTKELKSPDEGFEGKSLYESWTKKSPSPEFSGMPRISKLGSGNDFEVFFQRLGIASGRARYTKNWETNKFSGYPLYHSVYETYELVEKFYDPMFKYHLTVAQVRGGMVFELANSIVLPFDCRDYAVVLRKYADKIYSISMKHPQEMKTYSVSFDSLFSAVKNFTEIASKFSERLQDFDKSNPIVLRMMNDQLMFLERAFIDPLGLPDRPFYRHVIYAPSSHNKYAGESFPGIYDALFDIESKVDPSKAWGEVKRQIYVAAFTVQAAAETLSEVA

Structure (SMILES): O=C(O)CC[C@H](NC(=S)N[C@@H](CCC(=O)O)C(=O)O)C(=O)O
- Stabilty [1]: Stable
- Stabilty [2]: Stable
- IC50 [3]: 135 µM

Structure (SMILES): O=C(O)CC[C@H](NC(=O)N[C@@H](CCC(=O)O)C(=O)O)C(=O)O
- Stabilty [1]: Stable
- Stabilty [2]: Stable
- IC50 [3]: 1.34 µM
